The results in this text go back to patent US20090269352A1, “ANTITUMOR AGENT COMPRISING SULFONAMIDE-CONTAINING HETEROCYCLIC COMPOUND COMBINED WITH AN ANGIOGENESIS INHIBITOR” (priority 2002, published 2009).

One test has as its system Colo320DM cells. The experiment in a line: Mouse model with grown cancer, Colo320DM. Type of test: in vivo, mice (KSN Slc, female). As to conditions: Colo320DM tumor; oral, 2 weeks; relative tumor volume treated/control. The procedure: (§1) 1×10^7 KP-1 or Colo320DM cells/0.1 ml PBS/mouse were inoculated subcutaneously to mice (KSN Slc, female). From 1 to 2 weeks after the transplantation, 0.5% aqueous methyl cellulose solution, E7820 (0.5% methyl cellulose suspension: 50, 100, 200 mg/kg: twice a day), or ZD6474 (0.5% methyl cellulose suspension: 50, 100 mg/kg: once a day), or both of E7820 (50, 100, 200 mg/kg: twice a day) and ZD6474 (50, 100 mg/kg: once a day), were orally administered for 2 weeks. The transplanted tumor volume was measured twice every week, and the relative tumor volume was calculated according to the following equation: Relative tumor volume=tumor volume on the day after last administration/tumor volume at first administration.
(§2) The antitumor effect was expressed in T/C % (T/C %=relative tumor volume in the chemical administration group/relative tumor volume in the control group).

The next test deals with KP-1 cells. Kind of test: Mouse model with grown cancer, KP-1. The test is classed as in vivo, mice (KSN Slc, female). The following applies: KP-1 tumor; oral, 2 weeks; relative tumor volume treated/control. The procedure: as §1, §2
Another test relates to KP-1 or Colo320DM cells. Kind of test: Mouse model with grown cancer (FIG. 1, tumor not given). Type of test: in vivo, mice (KSN Slc, female). As to conditions: oral, 2 weeks. The procedure:
as §1, §2

The subject of test [1] is Human umbilical vein endothelial cells (HUVEC). The experiment in a line: Tube formation of endothelial cell, FGF inhibitor wells, combination with E7820. Type of test: cell-based. As to conditions: inhibition rate (fa) 0.5, 10 ng/ml EGF and 20 ng/ml bFGF.
Description: (§4) 400 μl of type I collagen gel (Nitta Gelatin) were added onto each well of a 24-well plate (FALCON) and gelled at 37° C. in a CO2 incubator for 40 min. A serum-free medium (human endothelial-SFM basal growth medium; GIBCO BRL) containing 20 ng/ml EGF (GIBCO BRL) was prepared, and 200 μl of this medium solution were added onto each well containing the type I collagen gel. Human umbilical vein endothelial cells (HUVEC) were suspended in a serum-free medium (human endothelial-SFM basal growth medium; GIBCO BRL) to prepare a cell suspension at a density of 5×10^5 cells/ml. 200 μl of this suspension were put into each well containing the type I collagen gel and serum-free medium, and cultured overnight.
(§5) After incubation, […] of 3.3 mg/ml MTT (SIGMA) were added into each well and reacted at 37° C. in a CO2 incubator for 3 hours to stain the cells. Under a microscope (SZX12 manufactured by OLYMPUS), an image of a tube formed by HUVEC was incorporated (M-3204C manufactured by OLYMPUS). The tube length in the incorporated image was measured by image analysis software Mac SCOPE 2.56 (manufactured by MITANI) to quantify the tube formation of HUVEC.
Test [2] relates to Human umbilical vein endothelial cells. Kind of test: Proliferation of FGF-induced endothelial cells, combination with E7820. The test is classed as cell-based. As to conditions: inhibition rate (fa) 0.5, 20 ng/ml bFGF; for Combination index (CI): formula of Chou et al. The procedure: On the next day, ½ serial dilutions of FGF receptor kinase inhibitors (PD166866, PD173074) or FGF antibody as FGF inhibitors, ½ serial dilutions of E7820, and dilutions containing two of the above substances were prepared respectively, and each dilution was added in a volume of 100 μl/well to each well containing the cultured human umbilical vein endothelial cells, and the cells were further cultured.
(§3) After 3 days, 5 ml cell counting kit solution (Wako Pure Chemical Industries, Ltd.) were diluted with PBS to give 40 ml dilution, and 50 μl of this dilution were added to each well, then incubated at 37° C. for 3 to 4 hours and measured for its absorbance at 415 nm by a plate reader (Corona Denki Co., Ltd.).

For test [3] the test system is unchanged. Kind of test: Proliferation of VEGF-induced endothelial cells, combination with E7820. Type of test: cell-based. As to conditions: inhibition rate (fa) 0.5, 20 ng/ml VEGF; for Combination index (CI): formula of Chou et al. The procedure: On the next day, ½ serial dilutions of VEGF receptor kinase inhibitors (ZD6474, ZD4190, SU5416, SU6668) or VEGF antibody as VEGF inhibitors, ½ serial dilutions of VEGF antibody, ½ serial dilutions of E7820, and dilutions containing two of the above substances were prepared respectively, and each dilution was added in a volume of 100 μl/well to each well containing the cultured human umbilical vein endothelial cells, and the cells were further cultured.
as §3

Test [4] deals with Human umbilical vein endothelial cells (HUVEC). Kind of test: Tube formation of endothelial cell, VEGF inhibitor wells, combination with E7820.
Description: as §4, §5

For `Cc1ccc(NS(=O)(=O)c2cccc(C#N)c2)c2[nH]cc(C#N)c12` [E7820], the T/C % with Colo320DM cells was determined as 60%; with KP-1 cells it was 83%. Also, the “Tumor growth / antitumor effect (FIG. 1)” value with KP-1 or Colo320DM cells is recorded as “tumor growth was inhibited”.

Turning to `COc1cc(OC)cc(-c2cc3cnc(N)nc3nc2NC(=O)NC(C)(C)C)c1` [PD166866], the Combination effect entry in test [1] is recorded as “Synergistic”. Further, in test [2], the Combination effect entry is “Synergistic” and the “Combination index (CI)” value came to 0.5.

Take `CCN(CC)CCCCNc1ncc2cc(-c3cc(OC)cc(OC)c3)c(NC(=O)NC(C)(C)C)nc2n1` [PD173074]: in test [2], the Combination effect result was “Synergistic” and the “Combination index (CI)” value is given as 0.4.

For the compound `Cc1cc(C)c(/C=C2\C(=O)Nc3ccccc32)[nH]1` [SU5416], in test [3], the Combination effect result is recorded as “Synergistic” and the “Combination index (CI)” value worked out at 0.4.

As to `Cc1[nH]c(/C=C2\C(=O)Nc3ccccc32)c(C)c1CCC(=O)O` [SU6668], in test [3], the Combination effect result was “Synergistic” and the “Combination index (CI)” value was 0.5.

As to `COc1cc2c(Nc3ccc(Br)cc3F)ncnc2cc1OCCn1ccnn1` [ZD4190], in test [3], the Combination effect result was “Synergistic” and the “Combination index (CI)” value came out at 0.3.

As to `COc1cc2c(Nc3ccc(Br)cc3F)ncnc2cc1OCC1CCN(C)CC1` [ZD6474], the Combination effect entry in test [4] (inhibition rate (fa) 0.5, 10 ng/ml EGF and 20 ng/ml VEGF) is given as “Synergistic”; in test [3], “Synergistic”. Also, the “Combination index (CI)” value is 0.4 in test [4] (inhibition rate (fa) 0.5, tube length, 10 ng/ml EGF and 20 ng/ml VEGF); 0.4 in test [3]. Besides, the T/C % in the test on Colo320DM cells is listed as 56%; with KP-1 cells, 47%. Moreover, the “Tumor growth / antitumor effect (FIG. 1)” value in the test on KP-1 or Colo320DM cells is “tumor growth was inhibited”.
